In assay [1] the target is LMP7 subunit of the immunoproteasome (Homo sapiens, UniProt P20618+P28062). As to conditions: Singh et al., Br. J. Hematology 152(2): 155-163; cited from earlier work.
The next assay addresses LMP7 (Homo sapiens, UniProt P20618+P28062). Kind of assay: Determination of LMP7 activity (fluorescence intensity assay, Suc-LLVY-AMC). It counts as biochemical. To be noted: purified human immunoproteasome. The protocol: Determination of LMP7 Activity:
Measurement of LMP7 inhibition is performed in 384 well format based on fluorescence intensity assay.
(§1) Purified human immunoproteasome (0.25 nM) and serial diluted compounds in DMSO (range of concentrations from 30 μM to 15 pM) or controls are incubated for 20 minutes or 120 minutes (long incubation) at 25° C. in assay buffer containing 50 mM Tris pH 7.4, 0.03% SDS, 1 mM EDTA and 1% DMSO. The reaction is initiated by the addition of the fluorogenic peptide substrate, Suc-LLVY-AMC (Bachem 1-1395), at a concentration of 40 μM. After 60 minutes of incubation at 37° C., fluorescence intensity is measured at λex=350 nm and λem=450 nm with a fluorescence reader (Perkin Elmer Envision reader or equivalent).
(§2) Unless indicated otherwise the results are obtained after incubation for 20 minutes.

Another assay concerns the target Beta5 (Homo sapiens, UniProt P20618+P28074). Kind of assay: Determination of Beta5 activity (fluorescence intensity assay, Suc-LLVY-AMC). The class given is biochemical. To be noted: for IC50: purified human constitutive proteasome. The protocol:
Determination of Beta5 Activity:
Measurement of Beta5 inhibition is performed in 384 well format based on fluorescence intensity assay.
as §1, with “constitutive proteasome (1.25” for “immunoproteasome (0.25”, “[…])” for “pM)”
as §2

The text below walks through data of US10640520B2, “Boronic acid derivatives” (MERCK PATENT GMBH, priority 2014, dated 2020).

In the case of `CC1=C(C(=O)N[C@H](C)C(=O)N[C@@H](Cc2c[nH]c3ccccc23)C(=O)N[C@@H](Cc2ccccc2)C(=O)[C@@]2(C)CO2)Cc2ccccc21` [PR-924], the “selectivity for the LMP7 subunit of the immunoproteasome” value in assay [1] is given as 100 fold.
By IC50 is commonly meant the concentration that inhibits the measured activity by half. A lower IC50 goes with higher potency. In turn, `Cc1ccc(C[C@H](NC(=O)CCN2CCCC2=O)B(O)O)cc1` [Compound 4, [(1R)-1-[3-(2-oxopyrrolidin-1-yl)propanoylamino]-2-(p-tolyl)ethyl]-boronic acid] returned an IC50 against LMP7 (incubation for 20 minutes) of under 50 nM. In addition, on Beta5 (incubation for 20 minutes), the “Selectivity LMP7 vs Beta5” value is reported as “++ (10 ≤ Selectivity < 30)” and the IC50 was 50 to 500 nM.
On to `O=C(CCN1CCCC1=O)N[C@@H](C[C@@H]1COc2ccccc21)B(O)O` [Compound 39, [(1R)-2-[(3S)-2,3-dihydrobenzofuran-3-yl]-1-[3-(2-oxopyrrolidin-1-yl)propanoylamino]ethyl]boronic acid], for which the IC50 on LMP7 (long incubation (120 min)) was under 50 nM. At Beta5 (long incubation (120 min)), the “Selectivity LMP7 vs Beta5” value is reported as “+++++ (Selectivity ≥ 70)” and the IC50 was 500 to 5000 nM.
In turn, `O=C(CCN1CC(c2ccccc2)CC1=O)N[C@@H](Cc1ccccc1)B(O)O` (stereo partly drawn) [Compound 12, [(1R)-1-[3-(2-oxo-4-phenyl-pyrrolidin-1-yl)propanoylamino]-2-phenyl-ethyl]boronic acid] displayed an IC50 on LMP7 (incubation for 20 minutes) of under 50 nM. Further, on Beta5 (incubation for 20 minutes), the “Selectivity LMP7 vs Beta5” value was “++ (10 ≤ Selectivity < 30)” and the IC50 fell in the range of 50 to 500 nM.
On LMP7 (incubation for 20 minutes), `O=C(CCN1CCCCCC1=O)N[C@@H](Cc1ccccc1)B(O)O` [Compound 13, [(1R)-1-[3-(2-oxoazepan-1-yl)propanoylamino]-2-phenyl-ethyl]boronic acid] had a half-maximal inhibitory concentration (IC50) of 50 to 500 nM. Besides, on Beta5 (incubation for 20 minutes), the “Selectivity LMP7 vs Beta5” value is listed as “++ (10 ≤ Selectivity < 30)” and the IC50 is 500 to 5000 nM.
`O=C(CCN1CCOCC1=O)N[C@@H](Cc1coc2ccccc12)B(O)O` [Compound 28, [(1R)-2-(benzofuran-3-yl)-1-[3-(3-oxomorpholin-4-yl)propanoylamino]-ethyl]boronic acid] gave an IC50 against LMP7 (incubation for 20 minutes) of under 50 nM. Besides, on Beta5 (incubation for 20 minutes), the “Selectivity LMP7 vs Beta5” value was “++ (10 ≤ Selectivity < 30)” and the IC50 fell in the range of 50 to 500 nM.
On LMP7 (incubation for 20 minutes), `Cc1ccc(C[C@H](NC(=O)CCN2CCCC2=O)B(O)O)cc1C` [Compound 16, [(1R)-2-(3,4-dimethylphenyl)-1-[3-(2-oxopyrrolidin-1-yl)propanoylamino]ethyl]boronic acid] gave an IC50 of under 50 nM. Besides, on Beta5 (incubation for 20 minutes), the “Selectivity LMP7 vs Beta5” value was “+++++ (Selectivity ≥ 70)” and the IC50 lay in the range of 500 to 5000 nM.
